Patent US10335378B2, “Inhibition of central nervous system effects from smoking and sensory effects from smoking” (Altria Client Services LLC, priority 2013, dated 2019)
“Also recorded” adds a separate entry of the source.

Key:
nAChR receptor [1] = test: Nicotine-induced CGRP release in mouse trachea tissue (ELISA); assay type: cell-based; details: for Maximal nicotinic response (CGRP release, time course): trachea tissue pretreated with nicotine, then enantiomer, FIG. 2; for CGRP release versus nicotine alone: trachea samples exposed to nicotine plus test substance, FIG. 1b
Procedure: (§1) CGRP is a sensory biomarker of neurons that mediate information to the brain. CGRP release can be detected in vitro using whole trachea tissue by exposing the tissue to a stimulatory compound. A standard ELISA assay may then be used to measure the release of CGRP. The active ingredient was tested using a mouse trachea model.
In order to determine whether a specific enantiomer of the active ingredient show greater efficacy, time course experiments were conducted in which trachea tissue samples were pretreated with nicotine and exposed to either the (−) or (+) enantiomer of camphor.
(§2) (FIG. 3a). […] Calcium-imaging experiments were performed on mouse nodose/jugular Ggl neurons with images captures at 340 and 380 nm over time. (FIG. 3b). […] (FIG. 3b). […] (FIG. 3c). […] (FIG. 3c). […] (FIG. 3d).

TRPV1 channel = test: Heat (45° C.)-induced CGRP release in tracheal samples; assay type: cell-based, mouse; details: FIG. 6; for Heat-induced CGRP release with test substance: 45° C.
TRPA1 channel [2] = biological target: T1, TRPA1 channel (Mus musculus, UniProt Q8BLA8); test: Acrolein-induced CGRP release in mouse trachea tissue; assay type: cell-based; set-up: CGRP release can be detected in vitro using whole trachea tissue; from tissue; host or cells: mouse trachea; details: FIG. 7; for CGRP release versus acrolein alone: trachea samples exposed to acrolein plus test substance
T1 sequence (Q8BLA8 whole entry): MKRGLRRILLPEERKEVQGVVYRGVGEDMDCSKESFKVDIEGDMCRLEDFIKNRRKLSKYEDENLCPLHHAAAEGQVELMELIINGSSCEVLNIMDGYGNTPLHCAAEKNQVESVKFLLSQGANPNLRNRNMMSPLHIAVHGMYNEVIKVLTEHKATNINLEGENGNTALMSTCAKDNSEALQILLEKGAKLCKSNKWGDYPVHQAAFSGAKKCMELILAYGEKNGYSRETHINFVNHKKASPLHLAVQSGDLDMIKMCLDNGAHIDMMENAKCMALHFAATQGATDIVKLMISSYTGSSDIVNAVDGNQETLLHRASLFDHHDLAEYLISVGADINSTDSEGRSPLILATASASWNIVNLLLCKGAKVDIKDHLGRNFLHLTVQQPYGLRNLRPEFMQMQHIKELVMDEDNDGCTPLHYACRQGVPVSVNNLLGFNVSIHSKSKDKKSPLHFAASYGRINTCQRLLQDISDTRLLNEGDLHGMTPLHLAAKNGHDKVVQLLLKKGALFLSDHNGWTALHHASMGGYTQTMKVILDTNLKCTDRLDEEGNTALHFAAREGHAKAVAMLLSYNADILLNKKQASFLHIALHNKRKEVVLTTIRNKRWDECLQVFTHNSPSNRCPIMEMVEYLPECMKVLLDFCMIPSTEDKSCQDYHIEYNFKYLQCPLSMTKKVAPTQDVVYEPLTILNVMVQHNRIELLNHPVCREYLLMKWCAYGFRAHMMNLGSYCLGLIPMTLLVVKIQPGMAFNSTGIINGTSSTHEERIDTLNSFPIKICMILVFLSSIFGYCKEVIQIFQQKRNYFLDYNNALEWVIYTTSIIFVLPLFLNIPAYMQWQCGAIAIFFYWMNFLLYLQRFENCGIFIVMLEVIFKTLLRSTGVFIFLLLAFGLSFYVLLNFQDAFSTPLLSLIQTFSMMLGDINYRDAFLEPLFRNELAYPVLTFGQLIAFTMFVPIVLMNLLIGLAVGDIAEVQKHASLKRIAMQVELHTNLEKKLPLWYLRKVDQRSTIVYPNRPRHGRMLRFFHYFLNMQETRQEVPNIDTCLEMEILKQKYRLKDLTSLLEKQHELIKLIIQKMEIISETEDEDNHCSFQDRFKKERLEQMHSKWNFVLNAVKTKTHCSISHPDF
Procedure: as §1
(FIG. 7). […] (FIG. 7). […] (FIG. 7).

nAChR receptor [3] = test: Epibatidine-induced CGRP release in tracheal tissue; assay type: cell-based, mouse
[4] = test system: mouse nodose/jugular Ggl neurons; test: Calcium imaging (340 and 380 nm) of nicotine-stimulated neurons; assay type: cell-based; details: FIG. 3b
Procedure: as §2

[5] = test system: nicotinic acetylcholine receptors; test: Nicotine-induced CGRP release in buccal mucosa tissue samples; assay type: cell-based, mouse
From the text: Active ingredients appropriate for use in embodiments described herein may also include isoborneol.

tracheal tissue samples = test: Total particulate matter (TPM)-stimulated CGRP release in tracheal tissue samples; assay type: cell-based; details: FIG. 10
From the text: To assess the potential of camphor on GCRP release stimulated by cigarette smoking, tracheal tissue samples were exposed to total particulate matter (TPM) containing the same amount of nicotine as in the nicotine alone experiment. […] (FIG. 10). […] (FIG. 10). The results observed in the TPM experiments are similar to those seen in experiments in which nicotine is used alone. (FIG. 10).

nerve fibers = details: isolated mouse trachea model; cited from earlier work
acetylcholine receptors = details: adrenal gland cells; cited from earlier work
TRPA1 channel [6] = biological target: T1, TRPA1 channel; test: Formalin-stimulated CGRP release in skin and tracheal tissue samples; assay type: cell-based; set-up: formalin-stimulated GCRP release in both skin and tracheal tissue samples; from tissue; host or cells: skin and tracheal tissue samples; details: FIG. 8
Procedure: (§3) Similar dosing experiments were performed using formalin, a TRPA1 channel […]. […] (FIG. 8). […] Thus, in some embodiments, active ingredients may be used that inhibit both the nicotinic acetylcholine receptors and the TRPA1 channel. […] (FIG. 9). […] (FIG. 9).

TRPA1 channel [7] = biological target: T1, TRPA1 channel; test: TRPA1 irritant-stimulated iCGRP release in tracheal tissue samples; assay type: cell-based; set-up: formalin-stimulated GCRP release in both skin and tracheal tissue samples; from tissue; host or cells: skin and tracheal tissue samples; details: tracheal tissue samples with TRPA1 channel irritants; FIG. 9
Procedure: as §3

[8] = tracheal samples of normal mice
[9] = tracheal samples of TRPV1 knockout mice

CC1(C)[C@H]2CC[C@]1(C)C(=O)C2 (single isomer, unassigned) [(−) enantiomer of camphor]
Maximal nicotinic response (CGRP release, time course) (nAChR receptor [1]): effective at abolishing the maximal nicotinic response

CC12CCC(CC1=O)C2(C)C (single isomer, unassigned; (+)) [(+) enantiomer of camphor]
Maximal nicotinic response (CGRP release, time course) (nAChR receptor [1]): effective at abolishing the maximal nicotinic response

NCCOB(c1ccccc1)c1ccccc1 [2-APB]
Heat-induced CGRP release with test substance (TRPV1 channel; [8]): increase CGRP release

CC(C)(C)c1ccc(NC(=O)N2CCN(c3ncccc3Cl)CC2)cc1 [BCTC, reference compound]
CGRP release versus nicotine alone (nAChR receptor [1]): did not show any significant reduction in CGRP release

CC(C)c1ccc(NC(=O)Cn2cnc3c2c(=O)n(C)c(=O)n3C)cc1 [HC030031, reference compound]
CGRP release versus nicotine alone (nAChR receptor [1]): did not show any significant reduction in CGRP release
CGRP release versus acrolein alone (TRPA1 channel [2]; FIG. 1c): CGRP release was also reduced

CNC1(C)C2CCC(C2)C1(C)C (stereo not shown) [Mecamylanine, reference compound]
Epibatidine-induced CGRP release with inhibitor (nAChR receptor [3]; tracheal tissue, FIG. 3c): release of CGRP could be inhibited

C=CC=O [acrolein, reference compound]
CGRP release induced by the stimulus alone (TRPA1 channel [2]; trachea tissue, various concentrations, FIG. 1c): cause CGRP release at various concentrations; also recorded: released increased amounts of CGRP when exposed to higher concentrations

CC12CCC(CC1=O)C2(C)C (stereo not shown) [camphor]
Dose dependence of anti-nicotinic effect (CGRP release) (nAChR receptor [1]; mouse trachea, nicotine plus various concentrations of camphor, FIG. 3a): CGRP release was decreased as the concentration of camphor was increased
CGRP release versus nicotine alone (nAChR receptor [1]): released less CGRP compared to samples exposed to nicotine alone
Nicotine-stimulated calcium influx in combination with test substance [4]: not when given in combination with camphor
Epibatidine-induced CGRP release with camphor in absence of TRPA1 (nAChR receptor [3]; tracheal samples from TRPA1 knockout mice, FIG. 3d): effectively inhibited CGRP release; also recorded: marked reduction in CGRP release
Epibatidine-induced CGRP release with inhibitor (nAChR receptor [3]; tracheal tissue, FIG. 3c): release of CGRP could be inhibited
CGRP release after nicotine followed by test substance, versus nicotine alone ([5]; buccal mucosa time course, male mice showed stronger inhibition, FIGS. 5a and 5b): CGRP release was significantly lower
CGRP release with nicotine and camphor ([5]; buccal mucosa, TRPA1/TRPV1 double knockouts, FIG. 4): did not show a significant change in CGRP release
Heat-induced CGRP release with test substance (TRPV1 channel; [9]): released comparable levels of CGRP relative to normal samples
Heat-induced CGRP release with test substance (TRPV1 channel; [8]): released comparable levels of CGRP relative to normal samples
TPM-stimulated CGRP release with camphor (tracheal tissue samples): largely blocked
Activation of nerve fibers induced by nicotine (nerve fibers): effectively inhibit activation of nerve fibers
Nor-epinephrine release (acetylcholine receptors): inhibit nor-epinephrine release from adrenal gland cells
CGRP release versus acrolein alone (TRPA1 channel [2]; FIG. 1c): decrease in CGRP release; also recorded: marked reduction in CGRP release
CGRP release in camphor treated samples as acrolein concentration was increased (TRPA1 channel [2]; versus acrolein only at the same concentration): significantly lower levels of CGRP
Effect of camphor at high formalin concentrations (TRPA1 channel [6]; both skin and tracheal tissue samples): could be overcome at high formalin concentrations
Formalin-stimulated CGRP release with camphor (TRPA1 channel [6]; skin tissue samples): decrease in formalin-stimulated GCRP release
Formalin-stimulated CGRP release with camphor (TRPA1 channel [6]; tracheal tissue samples): decrease in formalin-stimulated GCRP release
TRPA1 channel mediated release of iCGRP with camphor (TRPA1 channel [7]): reduce the TRPA1 channel mediated release of iCGRP

Clc1ccc(C2CC3CCC2N3)cn1 (stereo not shown) [epibatidine, reference compound]
CGRP release induced by the stimulus alone (nAChR receptor [3]; tracheal tissue, FIG. 3c): increased release of CGRP

CCO [ethanol]
CGRP release in ethanol-treated TRPV1 knockout samples relative to ethanol-treated normal samples (TRPV1 channel; heat treated tracheal samples): 5 fold less
Heat-induced CGRP release with test substance (TRPV1 channel; [9]): increase in CGRP release relative to untreated TRPV1 knockouts
Heat-induced CGRP release with test substance (TRPV1 channel; [8]): increase CGRP release

CN1CCCC1c1cccnc1 (stereo not shown) [nicotine]
CGRP release induced by the stimulus alone (nAChR receptor [1]; mouse trachea, FIG. 1a): induce the release of calcitonin gene-related peptide (CGRP)
Calcium influx, stimulus alone [4]: stimulated calcium influx in Ggl neurons
CGRP release induced by nicotine alone ([5]; buccal mucosa, TRPA1/TRPV1 double knockout mice, FIG. 4): did not respond to nicotine exposure by releasing similar amounts of CGRP relative to normal mice
CGRP release induced by nicotine alone ([5]; buccal mucosa, normal C57Bl/6 mice, FIG. 4, FIGS. 5a and 5b): released increased amounts of CGRP; also recorded: increased release of CGRP
